Source: patent US20070212773A1, “Electrical signal measuring device for cells in culture and electrical signal measuring method that uses same device” (priority 2006, published 2007)

Tested on: intestinal Caco-2 cells
Experiment: Impedance measurement of Caco-2 cells in culture after adding cupric chloride
Type: cell-based
Excerpt: The device used is specifically described as follows. That is, the support body is made of PDMS, and the size of the compartment in the support body (the combined size of the upper compartment and the lower compartment) is 15 mm in length, 6 mm in width, and 1.6 mm in height. This compartment is divided into an upper compartment and a lower compartment each with a height of approximately 0.8 mm using a polyester porous membrane which is provided with a diameter of 0.4 μm and a thickness of 14 μm (code 3450, made by CORNING INC.). Gold-plated brass nail-shaped objects with a length of 15 mm, an external diameter of 0.5 mm, and its circular head portion with a thickness of 0.4 mm and a diameter of 1.2 mm are used as the upper electrode and the lower electrode using a flat surface of the head portion as a measuring surface. Also, the upper electrode is fixed to the support body with its surface opposite to the surface facing the lower electrode in contact with the inside surface of the upper support body, while the lower electrode is fixed to the support body with its surface facing the upper electrode in contact with the semipermeable membrane. At this time, the distance between the surfaces of the upper electrode that faces the lower electrode and the lower electrode is 0.4 mm. Then, these electrodes are connected to an alternating-current power supply. Culturing conditions: As the culture medium, 10% fetal bovine serum, 1% MEM nonessential amino acid solution, 20 mM HEPES buffer solution, […] penicillin, 100 μg streptomycin, and 1 μg amphotericin added to DMEM (Dulbecco's Minimum Essential Medium) is used, and culturing is performed at an ambient temperature of 37 degrees C., with the carbon dioxide concentration maintained at 5%. Measurement condition: Measurement is performed by using a commercially available impedance analyzer, by applying an AC electrical field of 10 mV amplitude (1 Hz to 10 MHz) across the electrodes. Using the device used in Example 1, while culturing intestinal Caco-2 cells to which cupric chloride is added; impedance of the cells was measured. The culturing conditions of the cells and impedance measurement conditions are the same as in Example 1. The culture medium was replaced every two days, with the impedance measurement being performed before and after the culture medium replacement. Culturing was normally performed until the seventh day from the start of culturing. After impedance measurement, cupric chloride was added to a concentration of 30 μM to the culture medium, and the cell culturing was continued as it was from the moment directly after the cupric chloride was added (0 hours) to four hours after the addition. After the passage of four hours, the impedance was measured, and the culture medium containing the cupric chloride was washed away by a culture medium not containing the cupric chloride, accordingly washing was performed while the cells in culture were remained in the device. During this period, the impedance of the cells in culture was arbitrarily measured. In the legend shown in FIG. 3, “3 days” means the third day from the start of culturing, while “7 days (4 hours after addition)” means four hours after addition of cupric chloride to the culture medium on the seventh day from the start of culturing.

SMILES: [Cl][Cu][Cl] [cupric chloride]
- change in impedance amplitude (membranous structure) (30 μM for 4 h, then washed, 25 hours after the addition, breakdown of the membranous structure): reduction
- impedance phase θ around 10^6 Hz region (30 μM for 4 h, then washed, 25 hours after the addition, curve shifted to higher frequency side): −53 degrees
- impedance phase θ around 10^6 Hz region (30 μM for 4 h, then washed, 48 hours after the addition, curve shifted to lower frequency side): −58 degrees
- change in impedance amplitude (membranous structure) (30 μM for 4 h, then washed, 48 hours after the addition, renewal of the membranous structure): increase
- change in impedance amplitude (membranous structure) (30 μM in culture medium, added on seventh day of culturing, until four hours from the addition): hardly any changes
- change in impedance phase spectra curve (30 μM, added on seventh day of culturing, until four hours from the addition): without large changes
